Values of other authors in US11577212B2, “Stimuli-responsive micro-reservoirs for release of encapsulants” (priority 2018, dated 2023).

Structure (SMILES)	solubility in water
COCCOC [1,2-dimethoxy-ethane (glyme, DME), 1,2-dimethoxy-ethane]	Miscible
OCC(O)CO [glycerin]	Miscible
CCCCC [pentane]	0.04 g/100 g
Clc1ccccc1 [chlorobenzene]	0.05 g/100 g
C1CCCCC1 [cyclohexane]	0.0055 g/100 g
CN(C)P(N(C)C)N(C)C [Hexamethylphosphorous triamide (HMPT), Hexamethylphosphorous triamide]	Miscible

Further lines, results first:

solubility in water	Structure (SMILES)
0.0014 g/100 g	CCCCCC [hexane]
8.7 g/100 g	CCOC(C)=O [ethyl acetate]
Miscible	COCCOCCOC [diethylene glycol dimethyl ether]
Miscible	CCO [ethanol]
